Experimental data: US8252740B2, “Thermally-targeted delivery of medicaments including doxorubicin” (The University of Mississippi Medical Center, priority 2006, dated 2012)

Columns and labels:
MES-SA cells [1] = assay: Confocal fluorescence microscopy of intracellular localization; format: cell-based, human; details: 10 μM
Experimental: 1.7. Laser Scanning Confocal Fluorescence Microscopy. MES-SA cells were plated on 22 mm^2 cover slips at approximately 50% confluence and treated as described above with Tat-ELP-GFLG-Dox (SEQ ID NO: 3). Cells were rinsed with PBS at the indicated times, fixed with paraformaldehyde (PFA, 2% v/v) and visualized using a TCS SP2 laser scanning confocal microscope with a 100× oil immersion objective (Leica, Wetzlar, Germany). PMT voltages were lowered for imaging of cells treated at 42° C. during image acquisition to maximize image resolution and intensity.
3.4. Cellular Distribution. To confirm that Tat-ELP-GFLG-Dox (SEQ ID NO: 3) was internalized and not merely attached to the cell exterior, the cellular distribution of the ELP-delivered drug was examined by confocal fluorescence microscopy. MES-SA cells were treated for 1 h at 37° C. and 42° C. with 10 μM Tat-ELP1-GFLG-Dox (SEQ ID NO: 3). The cells were rinsed and analyzed immediately after treatment and 24 h later using the intrinsic Dox fluorescence. […] Untreated cells had no signal under the imaging settings used, ruling out any contribution to the images from autofluorescence (FIG. 7B, right panel).

[2] = Turbidity assay of the transition temperature (Tt); format: physicochemical
Experimental: In order to apply ELP-based polypeptides for drug delivery, a suitable temperature transition must be attained. The drug-labeled ELP should undergo its phase transition between 39 and 42° C., a temperature range sufficiently above normal body temperature to prevent unwanted systemic aggregation, but not hot enough to cause extensive toxicity. Elastin-like polypeptide is ideally suited as a thermally targeted drug carrier because the transition temperature can be easily manipulated by varying the molecular weight or the amino acid composition of the guest residue X in the VPGXG (SEQ ID NO: 2) sequence using simple molecular biology techniques. The transition temperature of Tat-ELP-GFLG-DOX (SEQ ID NO: 3) was assessed by monitoring the turbidity of a solution of the polypeptide while heating in physiological buffer. […] The polypeptide is soluble and the solution is clear at physiological temperature (37° C.).
1.4. Characterization of the Transition Temperature. The temperature induced aggregation of the proteins was characterized by monitoring absorbance at 350 nm while increasing the temperature. For initial analysis of Dox-labeled ELPs, solutions containing 10 μM protein in PBS were heated or cooled at a constant rate of 1° C./min in a temperature-controlled multicell holder in a UV-visible spectrophotometer (Cary 100, Varian instruments). The analysis was repeated with Tat-ELP1-GFLG-Dox (SEQ ID NO: 3) at concentrations ranging from 1 μM to 30 μM in cell culture media in order to determine the concentration dependence of the phase transition under experimental conditions. Absorbance data was converted to percentage of the maximal absorbance for each curve, and the Tt was defined as the temperature at which the OD350 reached 50% of the maximum turbidity. The concentration dependence of the Tt was fit using a logarithmic equation.
3.2. Thermal Properties of the Dox Delivery Vector. […] The Tt of Tat-ELP-GFLG-Dox (SEQ ID NO: 3) was assessed by monitoring the turbidity of a 10 μM solution of the polypeptide while heating in PBS. […]

MES-SA cells [3] = assay: DIC microscopy of apoptotic cell morphology; format: cell-based, human; details: 10 μM
Experimental: 1.9. Apoptosis Assays. For differential interference contrast (DIC) microscopy, MES-SA cells were plated onto 22 mm^2 coverslips at 50% confluence. Cells were treated as described above with the indicated protein, rinsed with PBS, and mounted onto glass slides. The unfixed cells were imaged immediately using a Zeiss Axiovert 200 DIC microscope with a 40× oil immersion objective and a Coolsnap HQ camera.
2.6. Induction of Apoptosis. […] This effect was documented by treating MES-SA cells adhered to glass cover slips with each construct and imaging them by DIC microscopy. Cells were treated for 1 h as described above, then immediately mounted on slides and imaged without fixation. […] Untreated cells were spread onto the glass, and morphological features such as nuclei and endocytic vesicles were readily visible. This morphology was not altered by simply exposing the cells to hyperthermia. […] However, such effects were minor and limited to a fraction of the cells. […] All cells examined were rounded with no discernable nucleus and fragmented chromosomes.

For Tat-ELP1-GFLG-Dox, the “Intracellular localization of Dox” value (MES-SA cells [1]; 24 h after 1 h exposure) was “remained in the cell cytoplasm”, the “Intracellular localization of Dox” value (MES-SA cells [1]; after 1 h exposure) was “plasma and nuclear membranes as well as in a punctate pattern in the cytoplasm” and the “Transition temperature (Tt)” value ([2]; 10 μM in PBS, heated 1° C./min, midpoint of turbidity) was 40 °C. The “State of the solution at physiological temperature” value ([2]; 37° C.) was “soluble”, the “State of the solution at hyperthermia temperature” value ([2]; 42° C.) was “aggregated” and the “Cell morphology (hallmarks of apoptosis)” value (MES-SA cells [3]; 1 h at 37° C. (below the Tt)) was “more extensive rounding and blebbing”. The “Cell morphology (hallmarks of apoptosis)” value (MES-SA cells [3]; 1 h at 42° C. (above the Tt)) was “normal cell morphology was completely destroyed”.
